These results are taken from patent US20110236467A1, “METHOD FOR ERECTILE FUNCTION PO[…] PHARMACEUTICAL CO[…] TX2-6 OF THE SPIDER PHONEUTRIA NIGRIVENTER” (priority 2008, published 2011).

“Also recorded” adds a separate entry of the source.

The test system of the assay is nitric oxide synthase (NOS). The experiment in a line: Blockage of nitric oxide synthase by L-NAME and Tx2-6 action on erectile function (ICP/MAP) in rats. The format is in vivo, rat. How it is done:
The participation of nitric oxide, resulting from the toxin effect on erection, was tested by using a nonselective inhibitor of the nitric oxide synthase enzyme, L-NAME (L-N^G-nitro-arginine methyl ester), intracavernosally injected (200 mg/Kg) in normotensive rats treated with Tx2-6 (subcutaneously injected; 48 μg/Kg).
Nitric oxide (NO) is generated from the amino acid L-arginine by means of the NOS enzyme action. This synthesis occurs in different parts of the organism, including the corpus cavernosum. In this experiment, an inhibitor nonspecific for NOS (L-NAME, 200 mg/Kg) was injected intracavemosally.

As for `COC(=O)[C@@H](N)CCCNC(=N)N[N+](=O)[O-]` [L-NAME, L-N^G-nitro-arginine methyl ester], the “effect of L-NAME on rat erectile function (ICP/AMP ratio)” value (L-NAME 200 mg/Kg intracavernosal, submaximum stimulation) was “blocked rat erectile function; also recorded: significant blockage”. Moreover, for the setting “L-NAME with Tx2-6”, the “effect of L-NAME on the potentiator effect of erection caused by the toxin (ICP/MAP relation)” value is on record as “completely blocked”.
